A word on the Ki: it is a dissociation constant, usually derived from enzyme kinetics or from competition with a known ligand.

We go through five compounds from ChEMBL document CHEMBL4665885, “Structural Basis of Nanomolar Inhibition of Tumor-Associated Carbonic Anhydrase IX: X-Ray Crystallographic and Inhibition Study of Lipophilic Inhibitors with Acetazolamide Backbone” (J Med Chem, 2020).

The target in one assay is Carbonic anhydrase 1 (Homo sapiens, UniProt P00915). Kind of assay: Inhibition of recombinant human CA1 expressed in Escherichia coli BL21 preincubated for 15 mins by phenol red dye-based stopped-flow CO2 hydration assay.
A further assay deals with Carbonic anhydrase 9 (Homo sapiens, UniProt Q16790). The assay can be described thus: Inhibition of recombinant human CA9 expressed in Escherichia coli BL21 preincubated for 15 mins by phenol red dye-based stopped-flow CO2 hydration assay.

Carbonic anhydrase 1, sequence (P00915 whole entry): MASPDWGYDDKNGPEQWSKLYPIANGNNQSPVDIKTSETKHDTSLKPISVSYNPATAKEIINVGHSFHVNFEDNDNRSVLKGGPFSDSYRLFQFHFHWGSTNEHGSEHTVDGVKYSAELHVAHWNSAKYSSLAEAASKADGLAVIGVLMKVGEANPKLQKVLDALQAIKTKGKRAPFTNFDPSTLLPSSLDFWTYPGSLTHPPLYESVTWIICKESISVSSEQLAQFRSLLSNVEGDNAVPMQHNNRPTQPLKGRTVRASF

Take `NS(=O)(=O)c1nnc(NC(=O)C2CCCCC2)s1`: the Ki at Carbonic anhydrase 1 amounted to 62.8 nM; at Carbonic anhydrase 9 it was 15.7 nM.
The like results for `CCCC(=O)Nc1nnc(S(N)(=O)=O)s1` were, in that order, 53.8 nM and 2.1 nM.
Take `CCC(=O)Nc1nnc(S(N)(=O)=O)s1` [PROPAZOLAMIDE]: at Carbonic anhydrase 9, the inhibition constant Ki turned out to be 12.8 nM.
Regarding `CC(C)(C)C(=O)Nc1nnc(S(N)(=O)=O)s1`, the results for the Ki on Carbonic anhydrase 1 and at Carbonic anhydrase 9 were 63.4 nM and 8.2 nM, respectively.
For the compound `CC(C)C(=O)Nc1nnc(S(N)(=O)=O)s1`, the Ki at Carbonic anhydrase 1 amounted to 75.1 nM; on Carbonic anhydrase 9, 2.4 nM.
